{
  "source": "patent US12527788B2",
  "about": "“Defining RNA-small molecule affinity landscapes enables design of a small molecule inhibitor of an oncogenic non-coding RNA” (University of Florida Research Foundation, Incorporated, priority 2017, dated 2026)",
  "key": {"[1]": {"target": "RNA3 (G bulge of the miR-17 and miR-20a precursors)", "test": "Fluorescence-based binding affinity measurement", "parameters": "species or system human", "protocol": "(§1) FIG. 7: Secondary structures of the nucleic acids to which the binding of small molecule 4 was assessed. […] RNA1 contains the U bulge present in the Dicer processing site common to miR-17, -18a and -20a. RNA2 contains the A bulge that is present in miR-18a. RNA3 contains the G bulge present in miR-17 and miR-20a. Binding affinities (Kd's) are indicated in parentheses and are reported in micromolar.\n(§2) Mutation of the U bulge to an AU pair (RNAC) eliminates binding (Kd>100 μM).\n(§3) Binding Affinity Measurements: An in solution, fluorescence-based assay was used to determine binding affinities by monitoring the change in fluorescence intensity of 1-FL (or 2-FL/3-FL/4-FL) as a function of RNA concentration as described previously.^18 Briefly, the RNA of interest was folded in 1× Folding Buffer (8 mM Na2HPO4, pH 7.0, 185 mM NaCl and 1 mM EDTA) by heating at 60° C. for 5 min followed by slowly cooling to room temperature on the bench top. Then, the FL-conjugated compound was added into the RNA solution to a final concentration of 100 nM. Serial dilutions were then completed using 1× Folding Buffer supplemented with 100 nM FL-conjugated compound. The solutions were incubated at room temperature for 30 min and then transferred to a well of a black 384-well plate. Fluorescence intensity was measured using a Bio-Tek FL×800 plate reader with an excitation wavelength of 485/20 nm and an emission wavelength of 528/20 nm. The change in fluorescence intensity as a function of the concentration of RNA was fit to equation 3:^9 I=I0+0.5 Δε{([FL]0+[RNA]0 +Kd)−(([FL]0+[RNA]0+Kd)^2−4[FL]0[RNA]0)^1/2} (3) where I is the observed fluorescence intensity; I0 is the fluorescence intensity in the absence of RNA; Δε is the difference between the fluorescence intensity in the absence of RNA and in the presence of infinite RNA concentration; [FL]0 is the concentration of compound; [RNA]0 is the concentration of the selected RNA; and Kd is the dissociation constant."}, "[2]": {"target": "RNA2 (A bulge of the miR-18a precursor)", "test": "Fluorescence-based binding affinity measurement", "parameters": "species or system human", "protocol": "as §1, §2, §3"}, "[3]": {"target": "RNA1 (5′G_U/3′CUA U bulge of Dicer sites in miR-17, -18a and -20a)", "test": "Fluorescence-based binding affinity measurement", "parameters": "species or system human", "protocol": "as §1, §2, §3"}, "[4]": {"tested_on": "mature miR-20a", "test": "RT-qPCR of mature miRNA levels in DU145 cells", "assay_type": "cell-based", "settings": "Homo sapiens, DU-145, read-out: IC50 for decrease of mature miRNA", "protocol": "(§4) In particular, the mature levels of each miRNA in the cluster were studied by RT-qPCR. In agreement with our in vitro Dicer processing studies (FIG. 8A and Figures S-58-S-62), 4 decreases the amount of mature miR-17, -18a, and -20a at low micromolar concentrations with an IC50 of ˜10 µM, but has no effect on miR-19a, -19b, and -92a (FIG. 8B).\n(§5) Cell Culture: DU145 cells were cultured in growth medium (Roswell Park Memorial Institute medium (RPMI) supplemented with 10% fetal bovine serum (FBS)) at 37° C. and 5% CO2\n(§6) Total RNA was extracted from cells using a Quick-RNA Miniprep Kit (Zymo Research) per the manufacturer's protocol. Approximately 200 ng of total RNA was used in reverse transcription (RT) reactions, which were completed using a miScript II RT kit (Qiagen) per the manufacturer's protocol. RT-qPCR was performed on a 7900HT Fast Real Time PCR System (Applied Biosystem) using power SYBR Green Master Mix (Applied Biosystems). All primer sets were purchased from Integrated DNA Technologies, Inc. (IDT) or Eurofins (Table S1). The expression levels of mature miRNAs were normalized to U6 small nuclear RNA or 18s rRNA."}, "[5]": {"tested_on": "mature miR-17", "test": "RT-qPCR of mature miRNA levels in DU145 cells", "assay_type": "cell-based", "settings": "Homo sapiens, DU-145, read-out: IC50 for decrease of mature miRNA", "protocol": "as §4, §5, §6"}, "[6]": {"tested_on": "mature miR-18a", "test": "RT-qPCR of mature miRNA levels in DU145 cells", "assay_type": "cell-based", "settings": "Homo sapiens, DU-145, read-out: IC50 for decrease of mature miRNA", "protocol": "as §4, §5, §6"}, "[7]": {"tested_on": "pre-miR-19b", "test": "In vitro Dicer inhibition assay", "assay_type": "biochemical, human", "protocol": "(§7) Initial studies were completed in vitro to determine if compound 4 (Targapremir-18a) inhibits Dicer processing of each miRNA separately in the miR-17-92 cluster using radioactively labeled RNA (FIG. 8A). […] Thus, inhibition of Dicer processing by 4 is selective for miR-17, -18a, and -20a and non-selective inhibition of Dicer processing is not observed.\n(§8) Dicer Inhibition Assay: The template used for pre-miR-18a (5′-[…] GCTCCTTCTGGCA) (SEQ ID NO: 41) was PCR-amplified in 1×PCR Buffer, 2 μM forward primer (5′-[…]-AAGGTGCATCTAGTGCAGA) (SEQ ID NO: 42), 2 μM reverse primer (5′-[…]) (SEQ ID NO: 43), 4.25 mM MgCl2, 330 μM dNTPs, and 2 μL of Taq DNA polymerase in a 50 μL reaction. Cycling conditions were 95° C. for 30 s, 55° C. for 30 s, and 72° C. for 60 s. […] The samples was then supplemented with 1 mM ATP and 2.5 mM MgCl2. Serially diluted concentrations of 4 were added and the samples were incubated at room temperature for 15 min. Next, 0.005 units/μL of recombinant human Dicer (Genlantis) were added followed by incubation at 37° C. overnight. Reactions were stopped by adding the manufacturer's supplied stop solution.\n(§9) A T1 ladder (cleaves G residues) was generated by heating the RNA in 1×RNA Sequencing Buffer (20 mM sodium citrate, pH 5.0, 1 mM EDTA, and 7 M urea) at 55° C. for 10 min followed by slowly cooling to room temperature. RNase T1 was then added to a final concentration of 3, 0.3, 0.03 units/μL and the solution was incubated at room temperature for 20 min. An RNA hydrolysis ladder was generated by incubating RNA in 1×RNA hydrolysis buffer (50 mM NaHCO3, pH 9.4, and 1 mM EDTA) at 95° C. for 5 min. In all cases, cleavage products were separated on a denaturing 15% polyacrylamide gel and imaged using a Bio-Rad PMI phosphorimager."}, "[8]": {"tested_on": "pre-miR-19a", "test": "In vitro Dicer inhibition assay", "assay_type": "biochemical, human", "protocol": "as §7, §8, §9"}, "[9]": {"tested_on": "pre-miR-18a", "test": "In vitro Dicer inhibition assay", "assay_type": "biochemical, human", "settings": "low micromolar concentrations", "protocol": "as §7, §8, §9"}, "[10]": {"tested_on": "pre-miR-20", "test": "In vitro Dicer inhibition assay", "assay_type": "biochemical, human", "settings": "low micromolar concentrations", "protocol": "as §7, §8, §9"}, "[11]": {"tested_on": "pre-miR-17", "test": "In vitro Dicer inhibition assay", "assay_type": "biochemical, human", "settings": "low micromolar concentrations", "protocol": "as §7, §8, §9"}},
  "note": "“Also recorded” adds a separate entry of the source.",
  "data": [
    {"smiles": "CN1CCN(c2ccc(-c3ccc4nc(-c5cc(C(C)(C)C)c(OCCCC(=O)NCCCN=[N+]=[N-])c(C(C)(C)C)c5)[nH]c4c3)cc2)CC1", "note": "[Compound 4]", "values": [
      {"measurement": "Kd", "setting": "[1]", "value": "40 ± 6", "unit": "µM"},
      {"measurement": "Kd", "setting": "[2]", "value": "32 ± 5", "unit": "µM"},
      {"measurement": "Kd", "setting": "[3]", "value": "30 ± 2", "unit": "µM"},
      {"measurement": "IC50", "setting": "[4]", "value": "~10", "unit": "µM"},
      {"measurement": "IC50", "setting": "[5]", "value": "~10", "unit": "µM"},
      {"measurement": "IC50", "setting": "[6]", "value": "~10", "unit": "µM"},
      {"measurement": "Effect on Dicer processing", "setting": "[7]", "value": "no effect"},
      {"measurement": "Effect on Dicer processing", "setting": "[8]", "value": "no effect"},
      {"measurement": "Inhibition of Dicer processing", "setting": "[9]", "value": "inhibits in vitro Dicer processing; also recorded: inhibited Dicer processing"},
      {"measurement": "Inhibition of Dicer processing", "setting": "[10]", "value": "inhibited Dicer processing"},
      {"measurement": "Inhibition of Dicer processing", "setting": "[11]", "value": "inhibited Dicer processing"}
    ]}
  ]
}
